Results as given in US8614237B2, “Benzofuran-4,5-diones as selective peptide deformylase inhibitors” (Sloan-Kettering Institute for Cancer Research, priority 2009, dated 2013).

Experiments:
HsPDF [1] = biological target: T1, HsPDF (Homo sapiens, UniProt Q9HBH1); assay: HsPDF %I 10uM
T1 construct: A 63 amino acid N-terminally truncated human peptide deformylase (HsPDF); 6His (C); made in house; host or cells: E. coli BL21 (DE3), co-transformed with the GroES/EL chaperone plasmid
Procedure: (§1) Table printed on a drawing sheet, Figure 5
Head of the field: HsPDF %I 10uM
(§2) Footnotes: -26 124 % inhibition
(§3) The patent's description of the figure: FIG. 5.
Where the first naming reader finds the target: head: HsPDF %I 10uM

APN = APN %I 100uM
Procedure: as §1
Head of the field: APN %I 100uM
as §2, §3
Where the first naming reader finds the target: head: APN %I 100uM

EcPDF [2] = system: EcPDF
Procedure: Head of the field: EcPDF %I 10uM
(§4) Specificity profiling of the derivatives of benzofuran-4,5-diones.
Where the first naming reader finds the target: head: EcPDF %I 10uM

HsPDF [3] = biological target: T2, HsPDF (Homo sapiens, UniProt Q9HBH1); assay: FLUO functional assay (fluorescamine, substrate fMAHA); type: biochemical; settings: 0.5 μM HsPDF, upper limit 10 μM compound
T2 construct: A 63 amino acid N-terminally truncated human peptide deformylase (HsPDF); 6His (C); made in house; host or cells: E. coli BL21 (DE3), co-transformed with the GroES/EL chaperone plasmid
T2 sequence (Q9HBH1 64-243 limits assumed): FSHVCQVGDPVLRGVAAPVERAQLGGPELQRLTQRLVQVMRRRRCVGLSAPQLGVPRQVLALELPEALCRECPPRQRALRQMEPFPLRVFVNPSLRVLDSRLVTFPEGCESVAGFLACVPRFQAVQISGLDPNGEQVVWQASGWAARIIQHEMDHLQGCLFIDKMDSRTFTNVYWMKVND
Procedure: High controls consisted of 1% DMSO (v/v). […] The deformylation reaction mixture was incubated for one hour at room temperature. A separate set of plates containing 3 μL of fluorescamine at 1 mg/mL in 100% DMSO was prepared for the labeling step. Then, 17 μL of the reaction mixture from the original set of plates was transferred to the plates containing the fluorescamine solution for the labeling step. The readout was performed on a Perkin Elmer VICTOR^3 V™ Multi label counter, using an excitation wavelength of 355 nm, and an emission wavelength of 460 nm. […] Compounds inducing a variation of fluorescence greater than 20% were flagged as optically active compounds.
High controls consisted of 1% DMSO (v/v). […] The deformylation reaction mixture was incubated for one hour at room temperature. A separate set of plates containing 3 μL of fluorescamine at 1 mg/mL in 100% DMSO was prepared for the labeling step. Then, 17 μL of the reaction mixture from the original set of plates was transferred to the plates containing the fluorescamine solution for the labeling step. The readout was performed on a Perkin Elmer VICTOR3 V™ Multi label counter, using an excitation wavelength of 355 nm, and an emission wavelength of 460 nm.

MMP-1 = MMP-1 %I 100uM
Procedure: as §1
Head of the field: MMP-1 %I 100uM
as §2, §3
Where the first naming reader finds the target: head: MMP-1 %I 100uM

EcPDF [4] = system: EcPDF; remark: listed apart in the source
Procedure: Head of the field: EcPDF %I 100uM
as §4
Where the first naming reader finds the target: head: EcPDF %I 100uM

HsPDF [5] = biological target: T1, HsPDF; assay: HsPDF %I 100uM
Procedure: as §1
Head of the field: HsPDF %I 100uM
as §2, §3
Where the first naming reader finds the target: head: HsPDF %I 100uM

SMILES | HsPDF %I 10uM (HsPDF [1]) [%I] | APN %I 100uM (APN) [%I] | EcPDF %I 10uM (EcPDF [2]) [%I] | IC50 (HsPDF [3]) [nM] | MMP-1 %I 100uM (MMP-1) [%I] | EcPDF %I 100uM (EcPDF [4]) [%I] | HsPDF %I 100uM (HsPDF [5]) [%I]
COc1ccc(C(=O)c2coc3c2C(=O)C(=O)C(Br)=C3)cc1 [SKC-BF-06, 6-Bromo-3-(4-methoxybenzoyl)-benzofuran-4,5-dione] | 29 |  |  |  |  |  | 
COc1ccc(C(=O)c2coc3ccc(O)cc23)cc1 [SKC-BF-Int9, (5-Hydroxy-benzofuran-3-yl)-(4-methoxyphenyl)-methanone] |  | 4 | 5 |  |  |  | 
O=C1C(=O)c2c(C(=O)c3ccccc3)coc2C(Br)=C1Br [SKI 417508, 3-benzoyl-6,7-dibromobenzofuran-4,5-dione] |  |  |  | 3400 |  |  | 
COc1cc(C(=O)c2coc3c2C(=O)C(=O)c2ccccc2-3)cc(OC)c1OC [SKC-NF-03, 3-(3,4,5-Trimethoxy-benzoyl)-naphtho[1,2-b]furan-4,5-dione] | 25 |  | 18 |  | 21 | 21 | 
COc1ccc(C(=O)c2coc3c2C(=O)C(=O)c2ccccc2-3)cc1OC [SKC-NF-02, 3-(3,4-Dimethoxy-benzoyl)-naphtho[1,2-b]furan-4,5-dione] | 18 | 20 | 17 |  | 21 | 30 | 36
O=C1C(=O)c2c(C(=O)c3ccsc3)coc2C(Cl)=C1Cl [SKI 417512, 6,7-dichloro-3-(thiophene-3-carbonyl)benzofuran-4,5-dione] |  |  |  | 1800 |  |  | 
COc1ccc(C(=O)c2coc3cc(Br)c(O)cc23)cc1 [SKC-BF-Int7A, (6-Bromo-5-hydroxy-benzofuran-3-yl)-(4-methoxyphenyl)-methanone] | -17 | -17 | -8 |  |  | -14 | -5
COc1ccc(C(=O)c2coc3c(Br)cc(O)cc23)cc1 [SKC-BF-Int7B, (7-Bromo-5-hydroxy-benzofuran-3-yl)-(4-methoxyphenyl)-methanone] |  | -5 | 18 |  | -19 | 9 | 
COc1ccc(C(=O)c2coc3c2C(=O)C(=O)C=C3Cl)cc1 [SKC-BF-03, 7-Chloro-3-(4-methoxybenzoyl)-benzofuran-4,5-dione] |  |  | -6 |  |  |  | 
COc1ccc(C(=O)c2coc3ccc(O)c(Br)c23)cc1 [SKC-BF-Int7C, (4-Bromo-5-hydroxy-benzofuran-3-yl)-(4-methoxyphenyl)-methanone] | 3 | -14 | -4 |  |  | -4 | -20
COc1ccc(C(=O)c2coc3c(Cl)cc(O)c(Cl)c23)cc1 [SKC-BF-Int10E, (4,7-Dichloro-5-hydroxy-benzofuran-3-yl)-(4-methoxy-phenyl)-methanone] |  | -4 |  |  | -4 | -4 | 9
O=C1C(=O)c2c(C(=O)c3ccc(C(=O)O)cc3)coc2C(Br)=C1Br [SKI 417518, 4-(6,7-dibromo-4,5-dioxo-4,5-dihydrobenzofuran-3-carbonyl)benzoic acid] |  |  |  | 2300 |  |  | 
COc1cc(C(=O)c2coc3ccc(O)cc23)cc(OC)c1OC [SKC-BF-Int19] | 4 |  |  |  | 19 | 7 | 31
COc1ccc(C(=O)c2coc3ccc(O)cc23)cc1OC [SKC-BF-Int13, (3,4-Dimethoxy-phenyl)-(5-hydroxy-benzofuran-3-yl)-methanone] | -6 |  | -26 |  | 3 | 7 | 8
O=C(c1ccccc1)c1coc2c(Cl)c(Cl)c(O)cc12 [SKC-BF-Int4, (6,7-Dichloro-5-hydroxy-benzofuran-3-yl)-phenyl-methanone] | 8 | 6 | 6 |  | -20 | 1 | 24
COc1cc(C(=O)c2coc3c(Br)c(Br)c(O)cc23)cc(OC)c1OC [SKC-BF-Int21, (6,7-Dibromo-5-hydroxy-benzofuran-3-yl)-(3,4,5-trimethoxy-phenyl)methanone] |  |  | 4 |  |  | 7 | 5
O=C(c1ccccc1)c1coc2ccc(O)cc12 [SKC-BF-Int3, (5-Hydroxy-benzofuran-3-yl)-phenyl-methanone] |  |  | 7 |  |  | 7 | 
COc1ccc(C(=O)c2coc3c(Br)c(Br)c(O)cc23)cc1OC [SKC-BF-Int14, (6,7-Dibromo-5-hydroxy-benzofuran-3-yl)-(3,4-dimethoxy-phenyl)-methanone] | 3 | -6 | 3 |  | -20 | -20 | 
COc1cc(C(=O)c2coc3c2C(=O)C(=O)C(Cl)=C3Cl)cc(OC)c1OC [SKC-BF-11, 6,7-Dichloro-3-(3,4,5-trimethoxy-benzoyl)-benzofuran-4,5-dione] |  |  |  |  | 32 | 27 | 
COc1cc(C(=O)c2coc3c(Cl)c(Cl)c(O)cc23)cc(OC)c1OC [SKC-BF-Int22, (6,7-Dichloro-5-hydroxy-benzofuran-3-yl)-(3,4,5-trimethoxy-phenyl)methanone] |  | 2 | 4 |  | -14 | 2 | 18
COc1ccc(C(=O)c2coc3c(Br)cc(O)c(Br)c23)cc1 [SKC-BF-Int7D, (4,7-Dibromo-5-hydroxy-benzofuran-3-yl)-(4-methoxy-phenyl)-methanone] | 0 |  |  |  |  | -8 | -9
COc1ccc(C(=O)c2coc3c2C(=O)C(=O)C(Cl)=C3Cl)cc1 [SKC-BF-05, 6,7-Dichloro-3-(4-methoxy-benzoyl)-benzofuran-4,5-dione] |  |  | 0 |  | -19 | 1 | 
COc1ccc(C(=O)c2coc3cc(Cl)c(O)c(Cl)c23)cc1 [SKC-BF-Int10D, (4,6-Dichloro-5-hydroxy-benzofuran-3-yl)-(4-methoxyphenyl)-methanone] | 21 |  | 4 |  |  | 3 | 26
COc1ccc(C(=O)c2coc3c(Cl)c(Cl)c(O)cc23)cc1OC [SKC-BF-Int16, (6,7-Dichloro-5-hydroxy-benzofuran-3-yl)-(3,4-dimethoxy-phenyl)-methanone] | -24 |  | 4 |  |  | -6 | -21
COc1ccc(C(=O)c2coc3c(Cl)c(Cl)c(O)cc23)cc1 [SKC-BF-Int10F, (6,7-Dichloro-5-hydroxy-benzofuran-3-yl)-(4-methoxyphenyl)-methanone] | 4 | -4 |  |  |  |  | 
